Article PMC10247784, “Physiological activation of human and mouse bitter taste receptors by bile acids” (Communications Biology, 2023)
Values joined by “and” are separate entries in the source; they are usually repeats but may differ in a detail not shown here. Identical values can stand only once.

Biological target: T1, human TAS2R4 (Homo sapiens, UniProt Q9NYW5)
T1 construct: expressed in transfected cells; host or cells: HEK293T-Gα16gust44
T1 sequence (Q9NYW5 1-299): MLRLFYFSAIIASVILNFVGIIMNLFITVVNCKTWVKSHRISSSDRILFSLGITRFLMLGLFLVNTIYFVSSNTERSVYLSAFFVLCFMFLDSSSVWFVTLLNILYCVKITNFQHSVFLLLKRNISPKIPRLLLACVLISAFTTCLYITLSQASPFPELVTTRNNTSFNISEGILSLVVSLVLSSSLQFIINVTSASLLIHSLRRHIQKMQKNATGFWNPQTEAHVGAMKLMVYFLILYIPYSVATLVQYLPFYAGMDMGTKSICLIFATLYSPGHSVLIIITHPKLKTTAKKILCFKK
Test: Calcium imaging assay (FLIPR), HEK293T-Gα16gust44 cells transfected with human TAS2R4
Format: cell-based
Method in brief: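 Read-out is Fluo-4 fluorescence change (ΔF/F) after automated application of bile acids (DMSO stocks) to transiently transfected cells. Values are corrected for empty-vector cells and normalized to buffer. Dose-response from three independent experiments in duplicate; threshold concentration set at p < 0.01 versus mock.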

- Efficacy = maximal amplitude (ΔF/F) (TAS2R4, bile acids, mean): 0.08533
- Efficacy (maximal amplitude ΔF/F), individual data points (TAS2R4, bile acids, single replicates, listed as DCA): 0.07628 and 0.1105 and 0.06917
- RLU, fluorescence trace (Time (s) 0): 0 RLU
- RLU, fluorescence trace (Time (s) 2): -24.43 RLU
- RLU, fluorescence trace (Time (s) 4): -23.5542 RLU
- RLU, fluorescence trace (Time (s) 6): -22.8766 RLU
- RLU, fluorescence trace (Time (s) 8): -1.905 RLU
- RLU, fluorescence trace (Time (s) 12): -21.8648 RLU
- RLU, fluorescence trace (Time (s) 14): -18.1346 RLU
- RLU, fluorescence trace (Time (s) 16): -52.8215 RLU
- RLU, fluorescence trace (Time (s) 18): -24.2064 RLU
- RLU, fluorescence trace (Time (s) 18.766 (TCA, TLCA: 18.782)): -22.8202 RLU
- RLU, fluorescence trace (Time (s) 20.781 (TCA, TLCA: 20.782)): -95.6069 RLU
- RLU, fluorescence trace (Time (s) 22.781 (TCA, TLCA: 22.782)): -71.6568 RLU
- RLU, fluorescence trace (Time (s) 24.781 (TCA, TLCA: 24.782)): -40.8819 RLU
- RLU, fluorescence trace (Time (s) 26.781 (TCA, TLCA: 26.782)): -9.811 RLU
- RLU, fluorescence trace (Time (s) 28.781 (TCA, TLCA: 28.782)): 38.1772 RLU
- RLU, fluorescence trace (Time (s) 30.781 (TCA, TLCA: 30.782)): 89.531 RLU
- RLU, fluorescence trace (Time (s) 32.781 (TCA, TLCA: 32.782)): 109 RLU
- RLU, fluorescence trace (Time (s) 34.781 (TCA, TLCA: 34.782)): 155.799 RLU
- RLU, fluorescence trace (Time (s) 36.781 (TCA, TLCA: 36.782)): 198.766 RLU
- RLU, fluorescence trace (Time (s) 38.781 (TCA, TLCA: 38.782)): 215 RLU
- RLU, fluorescence trace (Time (s) 40.781 (TCA, TLCA: 40.782)): 245.601 RLU
- RLU, fluorescence trace (Time (s) 42.781 (TCA, TLCA: 42.782)): 273.234 RLU
- RLU, fluorescence trace (Time (s) 44.781 (TCA, TLCA: 44.782)): 289.793 RLU
- RLU, fluorescence trace (Time (s) 46.781 (TCA, TLCA: 46.782)): 293.169 RLU
- RLU, fluorescence trace (Time (s) 48.781 (TCA, TLCA: 48.782)): 315.257 RLU
- RLU, fluorescence trace (Time (s) 50.781 (TCA, TLCA: 50.782)): 327.06 RLU
- RLU, fluorescence trace (Time (s) 52.781 (TCA, TLCA: 52.782)): 336.965 RLU
- RLU, fluorescence trace (Time (s) 54.781 (TCA, TLCA: 54.782)): 356.774 RLU
- RLU, fluorescence trace (Time (s) 56.781 (TCA, TLCA: 56.782)): 358.021 RLU
- RLU, fluorescence trace (Time (s) 58.781 (TCA, TLCA: 58.782)): 377.086 RLU
- RLU, fluorescence trace (Time (s) 60.781 (TCA, TLCA: 60.782)): 371.413 RLU
- RLU, fluorescence trace (Time (s) 62.781 (TCA, TLCA: 62.782)): 354.175 RLU
- RLU, fluorescence trace (Time (s) 64.781 (TCA, TLCA: 64.782)): 367.028 RLU
- RLU, fluorescence trace (Time (s) 66.781 (TCA, TLCA: 66.782)): 369.018 RLU
- RLU, fluorescence trace (Time (s) 68.781 (TCA, TLCA: 68.782)): 401.767 RLU
- RLU, fluorescence trace (Time (s) 70.781 (TCA, TLCA: 70.782)): 369.499 RLU
- RLU, fluorescence trace (Time (s) 72.781 (TCA, TLCA: 72.782)): 371.417 RLU
- RLU, fluorescence trace (Time (s) 74.781 (TCA, TLCA: 74.782)): 395.575 RLU
- RLU, fluorescence trace (Time (s) 76.781 (TCA, TLCA: 76.782)): 372.212 RLU
- RLU, fluorescence trace (Time (s) 78.781 (TCA, TLCA: 78.782)): 381.123 RLU
- RLU, fluorescence trace (Time (s) 80.781 (TCA, TLCA: 80.782)): 377.573 RLU
- RLU, fluorescence trace (Time (s) 82.781 (TCA, TLCA: 82.782)): 366.542 RLU
- RLU, fluorescence trace (Time (s) 84.781 (TCA, TLCA: 84.782)): 344.412 RLU
- RLU, fluorescence trace (Time (s) 86.781 (TCA, TLCA: 86.782)): 365.264 RLU
- RLU, fluorescence trace (Time (s) 88.781 (TCA, TLCA: 88.782)): 345.388 RLU
- RLU, fluorescence trace (Time (s) 90.781 (TCA, TLCA: 90.782)): 349.245 RLU
- RLU, fluorescence trace (Time (s) 92.781 (TCA, TLCA: 92.782)): 348.005 RLU
- RLU, fluorescence trace (Time (s) 94.781 (TCA, TLCA: 94.782)): 360.114 RLU
- RLU, fluorescence trace (Time (s) 96.781 (TCA, TLCA: 96.782)): 353.364 RLU
- RLU, fluorescence trace (Time (s) 98.781 (TCA, TLCA: 98.782)): 356.212 RLU
- RLU, fluorescence trace (Time (s) 100.781 (TCA, TLCA: 100.782)): 338.006 RLU
- RLU, fluorescence trace (Time (s) 102.781 (TCA, TLCA: 102.782)): 349.375 RLU
- RLU, fluorescence trace (Time (s) 104.781 (TCA, TLCA: 104.782)): 357.725 RLU
- RLU, fluorescence trace (Time (s) 106.781 (TCA, TLCA: 106.782)): 339.949 RLU
- RLU, fluorescence trace (Time (s) 108.781 (TCA, TLCA: 108.782)): 333.434 RLU
- RLU, fluorescence trace (Time (s) 110.781 (TCA, TLCA: 110.782)): 336.947 RLU
- RLU, fluorescence trace (Time (s) 112.781 (TCA, TLCA: 112.782)): 335.627 RLU
- RLU, fluorescence trace (Time (s) 114.781 (TCA, TLCA: 114.782)): 349.641 RLU
- RLU, fluorescence trace (Time (s) 116.781 (TCA, TLCA: 116.782)): 340.242 RLU
- RLU, fluorescence trace (Time (s) 118.781 (TCA, TLCA: 118.782)): 328.36 RLU
- RLU, fluorescence trace (Time (s) 120.781 (TCA, TLCA: 120.782)): 338.913 RLU
- RLU, fluorescence trace (Time (s) 122.781 (TCA, TLCA: 122.782)): 364.894 RLU
- RLU, fluorescence trace (Time (s) 124.781 (TCA, TLCA: 124.782)): 333.589 RLU
- RLU, fluorescence trace (Time (s) 126.781 (TCA, TLCA: 126.782)): 335.132 RLU
- RLU, fluorescence trace (Time (s) 128.781 (TCA, TLCA: 128.782)): 319.908 RLU
- RLU, fluorescence trace (Time (s) 130.781 (TCA, TLCA: 130.782)): 356.29 RLU
- RLU, fluorescence trace (Time (s) 132.781 (TCA, TLCA: 132.782)): 335.417 RLU
- RLU, fluorescence trace (Time (s) 134.781 (TCA, TLCA: 134.782)): 327.442 RLU
- RLU, fluorescence trace (Time (s) 136.781 (TCA, TLCA: 136.782)): 323.134 RLU
- RLU, fluorescence trace (Time (s) 137.547): 342.47 RLU
- RLU, fluorescence trace (Time (s) 143.547): 333.389 RLU
- RLU, fluorescence trace (Time (s) 149.547): 328.288 RLU
- RLU, fluorescence trace (Time (s) 155.547): 355.055 RLU
- RLU, fluorescence trace (Time (s) 161.547): 338.156 RLU
- RLU, fluorescence trace (Time (s) 167.547): 335.87 RLU
- RLU, fluorescence trace (Time (s) 173.547): 351.387 RLU
- RLU, fluorescence trace (Time (s) 179.547): 368.586 RLU
- RLU, fluorescence trace (Time (s) 185.547): 363.986 RLU
- RLU, fluorescence trace (Time (s) 191.547): 372.236 RLU
- RLU, fluorescence trace (Time (s) 197.547): 331.461 RLU
- RLU, fluorescence trace (Time (s) 203.547): 345.855 RLU
- RLU, fluorescence trace (Time (s) 209.547): 348.008 RLU
- RLU, fluorescence trace (Time (s) 215.547): 318.834 RLU
- RLU, fluorescence trace (Time (s) 221.547): 327.885 RLU
- RLU, fluorescence trace (Time (s) 227.547): 345.298 RLU
- RLU, fluorescence trace (Time (s) 233.547): 352.884 RLU
- RLU, fluorescence trace (Time (s) 239.547): 389.33 RLU
- RLU, fluorescence trace (Time (s) 245.547): 399.649 RLU
- RLU, fluorescence trace (Time (s) 293.547): 411.409 RLU
- RLU, fluorescence trace (Time (s) 299.547): 406.435 RLU
- RLU, fluorescence trace (Time (s) 305.547): 380.1 RLU
- RLU, fluorescence trace (Time (s) 311.547): 396.715 RLU
- RLU, fluorescence trace (Time (s) 317.547): 351.706 RLU
- RLU, fluorescence trace (Time (s) 323.547): 391.589 RLU
- RLU, fluorescence trace (Time (s) 329.547): 362.796 RLU
- RLU, fluorescence trace (Time (s) 335.547): 360.917 RLU
- RLU, fluorescence trace (Time (s) 341.547): 350.479 RLU
- RLU, fluorescence trace (Time (s) 347.547): 349.654 RLU
- RLU, fluorescence trace (Time (s) 353.547): 326.897 RLU
- RLU, fluorescence trace (Time (s) 359.547): 343.746 RLU
- Activation threshold concentration TAS2R4 (lowest concentration with significantly increased fluorescence vs empty vector (p < 0.01)): 3 µM
Compound: C[C@H](CCC(=O)O)[C@H]1CC[C@H]2[C@@H]3CC[C@@H]4C[C@H](O)CC[C@]4(C)[C@H]3C[C@H](O)[C@]12C [Deoxycholic Acid, deoxycholic acid]
